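Where inhibition never reached the appropriate level, the endpoint shown equals the highest concentration tested. Otherwise, values were interpolated linearly from a five-concentration, 48-hour dose response in 96-well plates. At the GI50, growth is halved.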 Calls of active or inactive are those of the source. Rule as the data show it: active = GI50 up to about 1.1 µM and inactive = higher.
Assays:
Test in all cases: NCI tumour cell line growth inhibition, 48 h
[1] = tested on: COLO 205
[2] = tested on: SK-MEL-2
[3] = tested on: SF-268
[4] = tested on: OVCAR-5
[5] = tested on: SF-539
[6] = tested on: 786-0
[7] = tested on: LOX IMVI
[8] = tested on: EKVX
[9] = tested on: SF-295
[10] = tested on: SNB-75
[11] = tested on: HL-60
[12] = tested on: UACC-62
[13] = tested on: TK-10
[14] = tested on: CCRF-CEM
[15] = tested on: BT-549
[16] = tested on: HCC 2998
[17] = tested on: ACHN
[18] = tested on: SK-MEL-5
[19] = tested on: Hs-578T
[20] = tested on: UACC-257
[21] = tested on: A549
[22] = tested on: SN12C
[23] = tested on: CAKI-1
[24] = tested on: MOLT-4
[25] = tested on: U-251
[26] = tested on: OVCAR-4
[27] = tested on: A498
[28] = tested on: K562
[29] = tested on: RPMI-8226
[30] = tested on: DU-145
[31] = tested on: IGROV-1
[32] = tested on: MCF7
[33] = tested on: NCI-H23
[34] = tested on: Malme-3M
[35] = tested on: SR
[36] = tested on: UO-31
[37] = tested on: PC-3
[38] = tested on: NCI-H226
[39] = tested on: T47D
[40] = tested on: HCT-15
[41] = tested on: HT-29
[42] = tested on: RXF 393
[43] = tested on: MDA-N
[44] = tested on: M14
[45] = tested on: KM12
[46] = tested on: NCI/ADR-RES
[47] = tested on: OVCAR-3
[48] = tested on: NCI-H460
[49] = tested on: SK-OV-3
[50] = tested on: HCT-116
[51] = tested on: MDA-MB-231
[52] = tested on: HOP-62
[53] = tested on: SW-620
[54] = tested on: SNB-19
[55] = tested on: SK-MEL-28
[56] = tested on: OVCAR-8
[57] = tested on: MDA-MB-435
[58] = tested on: HOP-92
[59] = tested on: NCI-H522

## CO[C@]1(c2ccc([N+](=O)[O-])cc2)Oc2ccccc2C(=O)[C@@]1(Nc1ccc(C=O)cc1)OC
[1]
  GI50: > 10 µM (inactive)
[2]
  GI50: > 10 µM (inactive)
[3]
  GI50: > 10 µM (inactive)
[4]
  GI50: > 10 µM (inactive)
[5]
  GI50: > 10 µM (inactive)
[6]
  GI50: > 10 µM (inactive)
[7]
  GI50: > 10 µM (inactive)
[8]
  GI50: > 10 µM (inactive)
[9]
  GI50: > 10 µM (inactive)
[10]
  GI50: > 10 µM (inactive)
[11]
  GI50: > 10 µM (inactive)
[12]
  GI50: > 10 µM (inactive)
[13]
  GI50: > 10 µM (inactive)
[14]
  GI50: > 10 µM (inactive)
[15]
  GI50: > 10 µM (inactive)
[16]
  GI50: > 10 µM (inactive)
[17]
  GI50: > 10 µM (inactive)
[18]
  GI50: > 10 µM (inactive)
[19]
  GI50: > 10 µM (inactive)
[20]
  GI50: > 10 µM (inactive)
[21]
  GI50: > 10 µM (inactive)
[22]
  GI50: > 10 µM (inactive)
[23]
  GI50: > 10 µM (inactive)
[24]
  GI50: > 10 µM (inactive)
[25]
  GI50: > 10 µM (inactive)
[26]
  GI50: > 10 µM (inactive)
[27]
  GI50: > 10 µM (inactive)
[28]
  GI50: > 10 µM (inactive)
[29]
  GI50: > 10 µM (inactive)
[30]
  GI50: > 10 µM (inactive)
[31]
  GI50: > 10 µM (inactive)
[32]
  GI50: > 10 µM (inactive)
[33]
  GI50: > 10 µM (inactive)
[34]
  GI50: > 10 µM (inactive)
[35]
  GI50: > 10 µM (inactive)
[36]
  GI50: > 10 µM (inactive)
[37]
  GI50: > 10 µM (inactive)
[38]
  GI50: > 10 µM (inactive)
[39]
  GI50: > 10 µM (inactive)
[40]
  GI50: > 10 µM
[41]
  GI50: > 10 µM (inactive)
[42]
  GI50: > 10 µM (inactive)
[43]
  GI50: > 10 µM (inactive)
[44]
  GI50: > 10 µM (inactive)
[45]
  GI50: > 10 µM (inactive)
[46]
  GI50: > 10 µM (inactive)
[47]
  GI50: > 10 µM (inactive)
[48]
  GI50: > 10 µM (inactive)
[49]
  GI50: > 10 µM (inactive)
[50]
  GI50: > 10 µM (inactive)
[51]
  GI50: > 10 µM (inactive)
[52]
  GI50: > 10 µM (inactive)
[53]
  GI50: > 10 µM (inactive)
[54]
  GI50: > 10 µM (inactive)
[55]
  GI50: > 10 µM (inactive)
[56]
  GI50: > 10 µM (inactive)
[57]
  GI50: > 10 µM (inactive)

## Nc1ncnc2c1ncn2[C@H]1C=C[C@@H](NO)C1
[1]
  GI50: > 100 µM (inactive)
[2]
  GI50: > 100 µM (inactive)
[3]
  GI50: > 100 µM (inactive)
[4]
  GI50: > 100 µM (inactive)
[5]
  GI50: > 100 µM (inactive)
[6]
  GI50: > 100 µM (inactive)
[7]
  GI50: > 100 µM (inactive)
[8]
  GI50: > 100 µM (inactive)
[9]
  GI50: > 100 µM (inactive)
[10]
  GI50: > 100 µM (inactive)
[12]
  GI50: > 100 µM (inactive)
[13]
  GI50: > 100 µM (inactive)
[14]
  GI50: > 100 µM (inactive)
[15]
  GI50: > 100 µM (inactive)
[16]
  GI50: > 100 µM (inactive)
[17]
  GI50: > 100 µM (inactive)
[18]
  GI50: > 100 µM (inactive)
[19]
  GI50: > 100 µM (inactive)
[20]
  GI50: > 100 µM (inactive)
[21]
  GI50: > 100 µM (inactive)
[22]
  GI50: > 100 µM (inactive)
[23]
  GI50: > 100 µM (inactive)
[24]
  GI50: > 100 µM (inactive)
[25]
  GI50: > 100 µM (inactive)
[58]
  GI50: > 100 µM (inactive)
[26]
  GI50: > 100 µM (inactive)
[27]
  GI50: > 100 µM (inactive)
[28]
  GI50: > 100 µM (inactive)
[29]
  GI50: > 100 µM (inactive)
[30]
  GI50: > 100 µM (inactive)
[31]
  GI50: > 100 µM (inactive)
[32]
  GI50: > 100 µM (inactive)
[33]
  GI50: > 100 µM (inactive)
[34]
  GI50: > 100 µM (inactive)
[35]
  GI50: > 100 µM (inactive)
[36]
  GI50: > 100 µM (inactive)
[59]
  GI50: > 100 µM (inactive)
[37]
  GI50: > 100 µM (inactive)
[38]
  GI50: > 100 µM (inactive)
[39]
  GI50: > 100 µM (inactive)
[40]
  GI50: > 100 µM
[42]
  GI50: > 100 µM (inactive)
[43]
  GI50: > 100 µM (inactive)
[44]
  GI50: > 100 µM (inactive)
[45]
  GI50: > 100 µM (inactive)
[46]
  GI50: > 100 µM (inactive)
[47]
  GI50: > 100 µM (inactive)
[48]
  GI50: > 100 µM (inactive)
[49]
  GI50: > 100 µM (inactive)
[50]
  GI50: > 100 µM (inactive)
[51]
  GI50: > 100 µM (inactive)
[52]
  GI50: > 100 µM (inactive)
[53]
  GI50: > 100 µM (inactive)
[54]
  GI50: > 100 µM (inactive)
[55]
  GI50: > 100 µM (inactive)
[56]
  GI50: > 100 µM (inactive)
[57]
  GI50: > 100 µM (inactive)
